This note sets out measurements from the OligoGym collection.

Oligonucleotides are written 5' to 3', each unit as a sugar letter and its base; * is a phosphorothioate linkage, no mark a phosphodiester; rarer units and linkages stand in square brackets, end groups in braces. Plain capitals give the bases only. d = 2'-deoxy (DNA); r = 2'-OH (RNA)
Note: test concentration or dose not given here.

For one data set, the target named is UBE2H. Put plainly: reporter assay of Huesken 2005. The settings on record: siRNA.
On to “sense rUrCrArGrUrUrArUrUrGrGrCrCrUrArUrCrCrUdTdT / antisense rArGrGrArUrArGrGrCrCrArArUrArArCrUrGrAdGdG”, for which the normalised inhibition (eCFP-eYFP dual reporter) was determined as 66.6%. “sense rUrArCrCrArArUrArUrArUrUrUrGrArGrUrCrCdTdT / antisense rGrGrArCrUrCrArArArUrArUrArUrUrGrGrUrAdAdG” gave a normalised inhibition (eCFP-eYFP dual reporter) of 48.6%. Same read-out and setting: as for “sense rGrGrCrGrCrUrGrArArArGrArArCrArGrGrArAdTdT / antisense rUrUrCrCrUrGrUrUrCrUrUrUrCrArGrCrGrCrCdTdC”, the figure is 98.5%.

A further data set deals with RHOQ. The data set is described as follows: reporter assay of Huesken 2005. The settings on record: siRNA. (Reporter assays use an easily measured gene product as a stand-in for the process of interest.)
The substance “sense rCrArUrUrUrArArArCrUrUrGrCrUrGrUrUrGrCdTdT / antisense rGrCrArArCrArGrCrArArGrUrUrUrArArArUrGdTdA” came in with a normalised inhibition (eCFP-eYFP dual reporter) of 74.6%. In the case of “sense rUrGrUrGrGrArUrCrUrGrCrCrUrUrArUrUrGrCdTdT / antisense rGrCrArArUrArArGrGrCrArGrArUrCrCrArCrAdGdC”, the normalised inhibition (eCFP-eYFP dual reporter) is 68.8%. Same read-out and setting: with “sense rArArUrArUrArArGrCrArUrCrArCrCrUrUrCrCdTdT / antisense rGrGrArArGrGrUrGrArUrGrCrUrUrArUrArUrUdTdT” the figure was 51.8%; with “sense rUrGrCrCrArUrGrCrArUrCrArGrArUrArArUrGdTdT / antisense rCrArUrUrArUrCrUrGrArUrGrCrArUrGrGrCrAdTdA”, 59.7%. The substance “sense rUrGrArArUrCrGrGrArCrArUrUrUrGrGrArUrGdTdT / antisense rCrArUrCrCrArArArUrGrUrCrCrGrArUrUrCrAdGdA” had a normalised inhibition (eCFP-eYFP dual reporter) of 38.9%. Same read-out and setting: with “sense rArArUrGrCrUrCrArUrArUrCrArGrUrCrArCrAdTdT / antisense rUrGrUrGrArCrUrGrArUrArUrGrArGrCrArUrUdTdA” the figure was 76%. In turn, “sense rUrCrGrGrArCrArUrUrUrGrGrArUrGrUrCrUrUdTdT / antisense rArArGrArCrArUrCrCrArArArUrGrUrCrCrGrAdTdT” yielded a normalised inhibition (eCFP-eYFP dual reporter) of 83%. “sense rUrGrCrUrCrArUrArUrCrArGrUrCrArCrArArAdTdT / antisense rUrUrUrGrUrGrArCrUrGrArUrArUrGrArGrCrAdTdT” displayed a normalised inhibition (eCFP-eYFP dual reporter) of 83.6%.

In turn, “sense rUrUrGrUrGrArArCrArArCrCrUrArArUrGrCrAdTdT / antisense rUrGrCrArUrUrArGrGrUrUrGrUrUrCrArCrArAdTdG” had a normalised inhibition (eCFP-eYFP dual reporter) of 83%.

“sense rCrUrUrCrUrUrUrCrUrUrCrCrArArGrArArArUdTdT / antisense rArUrUrUrCrUrUrGrGrArArGrArArArGrArArGdAdC” gave a normalised inhibition (eCFP-eYFP dual reporter) of 53.7%.

In turn, “sense rArCrArGrArUrUrGrGrGrUrArArUrGrGrArArCdTdT / antisense rGrUrUrCrCrArUrUrArCrCrCrArArUrCrUrGrUdGdC” registered a normalised inhibition (eCFP-eYFP dual reporter) of 47.1%.

Consider “sense rUrArArArGrUrArUrCrArUrGrGrCrCrUrUrArUdTdT / antisense rArUrArArGrGrCrCrArUrGrArUrArCrUrUrUrAdAdT”, for which the normalised inhibition (eCFP-eYFP dual reporter) stood at 75.9%. The same measure, in the same setting: as for “sense rUrGrGrArUrGrUrCrUrUrCrUrUrUrCrUrUrCrCdTdT / antisense rGrGrArArGrArArArGrArArGrArCrArUrCrCrAdAdA”, the figure is 68.4%. “sense rArUrCrArGrUrCrArCrArArArUrCrUrArGrGrAdTdT / antisense rUrCrCrUrArGrArUrUrUrGrUrGrArCrUrGrArUdAdT” returned a normalised inhibition (eCFP-eYFP dual reporter) of 75.3%. “sense rUrUrCrCrArArGrArArArUrGrGrUrGrGrUrUrCdTdT / antisense rGrArArCrCrArCrCrArUrUrUrCrUrUrGrGrArAdGdA” had a normalised inhibition (eCFP-eYFP dual reporter) of 38.3%. Still for that read-out and setting: with “sense rCrArArArUrCrUrArGrGrArUrGrUrArCrUrGrUdTdT / antisense rArCrArGrUrArCrArUrCrCrUrArGrArUrUrUrGdTdG” the figure was 79.4%; with “sense rCrUrArCrArUrUrUrArArArCrUrUrGrCrUrGrUdTdT / antisense rArCrArGrCrArArGrUrUrUrArArArUrGrUrArGdGdA”, 82.5%; with “sense rUrGrCrUrGrUrUrGrCrCrCrArArArUrUrArUrAdTdT / antisense rUrArUrArArUrUrUrGrGrGrCrArArCrArGrCrAdAdG”, 85.6%. The substance “sense rCrUrGrUrGrGrArUrCrUrGrCrCrUrUrArUrUrGdTdT / antisense rCrArArUrArArGrGrCrArGrArUrCrCrArCrArGdCdA” had a normalised inhibition (eCFP-eYFP dual reporter) of 79%. For the substance “sense rUrArUrGrCrCrArUrGrCrArUrCrArGrArUrArAdTdT / antisense rUrUrArUrCrUrGrArUrGrCrArUrGrGrCrArUrAdTdG”, the normalised inhibition (eCFP-eYFP dual reporter) was 75.7%. In turn, “sense rGrCrArUrCrArGrArUrArArUrGrGrUrGrUrUrAdTdT / antisense rUrArArCrArCrCrArUrUrArUrCrUrGrArUrGrCdAdT” yielded a normalised inhibition (eCFP-eYFP dual reporter) of 92.8%. For “sense rUrArUrArGrCrUrArUrGrUrCrUrArCrUrGrCrAdTdT / antisense rUrGrCrArGrUrArGrArCrArUrArGrCrUrArUrAdAdG”, the normalised inhibition (eCFP-eYFP dual reporter) came to 77.6%. “sense rArUrCrUrUrArUrGrUrArArCrUrUrUrCrUrUrAdTdT / antisense rUrArArGrArArArGrUrUrArCrArUrArArGrArUdTdC” returned a normalised inhibition (eCFP-eYFP dual reporter) of 59.1%. Consider “sense rUrArUrGrCrUrCrArArArUrGrGrArArUrCrUrUdTdT / antisense rArArGrArUrUrCrCrArUrUrUrGrArGrCrArUrAdCdA”, for which the normalised inhibition (eCFP-eYFP dual reporter) worked out at 54.7%. With “sense rUrUrGrArArArArUrGrArCrArGrCrCrUrUrArAdTdT / antisense rUrUrArArGrGrCrUrGrUrCrArUrUrUrUrCrArAdGdT”, the normalised inhibition (eCFP-eYFP dual reporter) worked out at 87.1%. The substance “sense rArUrGrGrArArCrArCrUrArArArCrUrUrUrUrAdTdT / antisense rUrArArArArGrUrUrUrArGrUrGrUrUrCrCrArUdTdA” displayed a normalised inhibition (eCFP-eYFP dual reporter) of 82.1%. Take “sense rArUrArArArArUrUrGrArArArGrGrArArUrUrGdTdT / antisense rCrArArUrUrCrCrUrUrUrCrArArUrUrUrUrArUdCdT”: the normalised inhibition (eCFP-eYFP dual reporter) turned out to be 36.4%.

In turn, “sense rCrUrGrGrArUrGrArCrUrGrGrCrCrArGrGrArAdTdT / antisense rUrUrCrCrUrGrGrCrCrArGrUrCrArUrCrCrArGdTdA” displayed a normalised inhibition (eCFP-eYFP dual reporter) of 75.7%.

Substance “sense rCrArUrGrCrArUrCrArGrArUrArArUrGrGrArUdTdT / antisense rArUrCrCrArUrUrArUrCrUrGrArUrGrCrArUrGdGdC” had a normalised inhibition (eCFP-eYFP dual reporter) of 72.3%. “sense rUrCrUrUrArUrUrUrArArUrUrUrUrGrGrUrCrUdTdT / antisense rArGrArCrCrArArArArUrUrArArArUrArArGrAdAdA” displayed a normalised inhibition (eCFP-eYFP dual reporter) of 44.2%. On to “sense rUrCrArCrArUrGrArCrUrUrGrArGrCrUrUrArUdTdT / antisense rArUrArArGrCrUrCrArArGrUrCrArUrGrUrGrAdAdT”, for which the normalised inhibition (eCFP-eYFP dual reporter) is 87%. Still for that read-out and setting: with “sense rCrArArGrArArArUrGrGrUrGrGrUrUrCrArCrAdTdT / antisense rUrGrUrGrArArCrCrArCrCrArUrUrUrCrUrUrGdGdA” the figure was 84.9%; with “sense rUrGrCrArUrUrUrUrArGrArGrArArArCrArArUdTdT / antisense rArUrUrGrUrUrUrCrUrCrUrArArArArUrGrCrAdTdT”, 84.9%; with “sense rUrArCrUrGrGrArUrGrArCrUrGrGrCrCrArGrGdTdT / antisense rCrCrUrGrGrCrCrArGrUrCrArUrCrCrArGrUrAdGdA”, 55.2%. In the case of “sense rCrCrUrUrArUrGrUrArUrGrCrUrCrArArArUrGdTdT / antisense rCrArUrUrUrGrArGrCrArUrArCrArUrArArGrGdCdC”, the normalised inhibition (eCFP-eYFP dual reporter) is 65.1%.

“sense rGrArGrArGrUrCrUrArCrUrGrGrArUrGrArCrUdTdT / antisense rArGrUrCrArUrCrCrArGrUrArGrArCrUrCrUrCdTdC” came in with a normalised inhibition (eCFP-eYFP dual reporter) of 77.3%. Consider “sense rCrArGrArUrArArUrGrGrArUrGrCrArUrCrArGdTdT / antisense rCrUrGrArUrGrCrArUrCrCrArUrUrArUrCrUrGdAdT”, for which the normalised inhibition (eCFP-eYFP dual reporter) came out at 80.4%. “sense rUrGrArArArArUrGrArCrArGrCrCrUrUrArArAdTdT / antisense rUrUrUrArArGrGrCrUrGrUrCrArUrUrUrUrCrAdAdG” had a normalised inhibition (eCFP-eYFP dual reporter) of 78.8%. As for “sense rUrGrArArGrArGrUrGrGrArGrArGrArGrUrCrUdTdT / antisense rArGrArCrUrCrUrCrUrCrCrArCrUrCrUrUrCrAdAdT”, the normalised inhibition (eCFP-eYFP dual reporter) came out at 70.7%. Same read-out and setting: with “sense rUrGrGrArUrCrUrGrCrCrUrUrArUrUrGrCrArUdTdT / antisense rArUrGrCrArArUrArArGrGrCrArGrArUrCrCrAdCdA” the figure was 88.7%; with “sense rArGrArUrUrGrGrGrUrArArUrGrGrArArCrArCdTdT / antisense rGrUrGrUrUrCrCrArUrUrArCrCrCrArArUrCrUdGdT”, 72%; with “sense rUrGrUrGrArArCrArArCrCrUrArArUrGrCrArUdTdT / antisense rArUrGrCrArUrUrArGrGrUrUrGrUrUrCrArCrAdAdT”, 75.4%. “sense rArCrArCrUrArArArCrUrUrUrUrArUrArCrUrUdTdT / antisense rArArGrUrArUrArArArArGrUrUrUrArGrUrGrUdTdC” had a normalised inhibition (eCFP-eYFP dual reporter) of 76.1%.

“sense rCrUrUrArUrGrUrArUrGrCrUrCrArArArUrGrGdTdT / antisense rCrCrArUrUrUrGrArGrCrArUrArCrArUrArArGdGdC” returned a normalised inhibition (eCFP-eYFP dual reporter) of 44%. Regarding “sense rArUrArArArUrCrArArUrUrArArCrArUrArUrUdTdT / antisense rArArUrArUrGrUrUrArArUrUrGrArUrUrUrArUdAdC”, the normalised inhibition (eCFP-eYFP dual reporter) worked out at 38.4%.

Turning to “sense rUrGrUrArUrGrUrGrArGrCrUrUrUrGrUrArGrAdTdT / antisense rUrCrUrArCrArArArGrCrUrCrArCrArUrArCrAdAdC”, the normalised inhibition (eCFP-eYFP dual reporter) came to 75.3%.
